According to patent US20090114877A1, “Composition Containing Stability-Improved Chloromethyl Phosphate Derivatve and Process for Producing Same” (Eisai R&D Management Co., Ltd., priority 2005, published 2009):

Test: Evaluation of storage stability (P-NMR integration values before and after storage)
Method: Note that evaluation of storage stability can be carried out by calculation of peak area derived from Compound (6) by high performance liquid chromatography or calculation of integration value by P-NMR measurement before and after storage.
Using the resulting di-tert-butyl chlorophosphate, N-methylmorpholine (NMM) and N,N-diisopropyl ethylamine (iPr2EtN) were added at given concentrations as tertiary amines, prior to concentrating the organic layer containing the phosphate. Then, after storing at a temperature of 40° C. for 3 hours (3 hr) or 6 hours (6 hr), integration values of di-tert-butyl chlorophosphate before and after storage were measured by P-NMR measurements. Note that the storage test at 40° C. was carried out using EYELA ChemStation (temperature accuracy of ±1° C.) as thermoregulated bath.

[1] = 0 mol % NMM added, 40° C., 3 hours storage test, FIG. 2

With CC(C)(C)OP(=O)(OCCl)OC(C)(C)C [di-tert-butyl chlorophosphate, di-tert-butyl chloromethyl phosphate] the “amount of remaining di-tert-butyl chlorophosphate” value [1] was 34%, the “initial di-tert-butyl chlorophosphate decomposed” value [1] was 66% and the “amount of di-tert-butyl chlorophosphate remaining” value (1 mol % NMM added, 40° C., 3 hours storage test) was 34%. For the same compound, the “amount of di-tert-butyl chlorophosphate remaining” value (2.5 mol % NMM added, 40° C., 3 hours storage test) was 88%, the “decomposition of di-tert-butyl chlorophosphate on storage” value (“decomposition” below) (5 mol % NMM added, 40° C., 3 hours storage test, FIG. 2) was “not observed” and the “decomposition” value (5 mol % NMM added, stored at 40° C. for 3 hr or 6 hr, FIG. 1) was “no decomposition”. For the same compound, the “decomposition” value (5 mol % iPr2EtN added, stored at 40° C. for 3 hr or 6 hr, FIG. 1) was “no decomposition” and the “decomposition” value (10 mol % NMM added, storage at room temperature for 1.5 days) was “no decomposition”.
